Results from patent US20100197625A1, “SYNTHETIC LIPOPHILIC INOSITOL GLYCANS FOR TREATMENT OF CANCER AND GLUCOSE-METABOLISM DISORDERS” (priority 2006, published 2010).
Entries after “also recorded” stand apart in the source; their conditions may differ.

Columns and labels:
[1] = tested on: Panc-1 cells; assay: ATP contents in Panc-1 cells; type: cell-based, human; conditions: 1 hour incubation in serum free media
Experimental: (§1) Human pancreatic cancer cell lines (Panc-1, MiaPaca2, BXPC3, Aspc 1), human hepatoma cell line (HuH7), human gastric cancer cell lines (AGS, MKN45), human colon cancer cell line (CoCM-1), human mammary cancer cell line (MCF-7), human neuroblastoma (SH-SY5Y), human prostate cancer cells (PC3), and murine Ehrlich ascites cancer cells and mouse 3T3-L1 fibroblasts were obtained from American Type Culture Collection (Rockville, Md., USA). The cancer cells were cultured in RPMI 1640 containing 10% fetal calf serum. Cultures were maintained at 37° C. in a humidified atmosphere of 5% CO2.

[2] = tested on: human hepatoma (HuH7); assay: Cell proliferation / cell death assay, HuH7; type: cell-based; conditions: HuH7, 10-100 μM
Experimental: as §1
(§2) Cell proliferation assays were performed with the CellTiter 96 AQueous One Solution Cell Proliferation Assay kit according to the manufacturer's instructions (Promega, Madison, Wis., USA). Briefly, 5×10^3 cells/well in medium were placed onto 96-well plates. IGs were added to cellular cultures at final concentrations of 0, 1, 10, and 100 μM. […] of CellTiter 96 AQueous One Solution Reagent, which contains a tetrazolium compound, 3-(4,5-dimethylthiazol-2-yl)-5-(3-carboxymethoxyphenyl)-2-(4-sulfophenyl)-2H-tetrazolium, an inner salt; MTS was added to the culture medium. After incubating the plate for 1 h in a CO2 incubator, absorbance at 490 nm was recorded with a 96-well plate reader.

[3] = tested on: human neuroblastoma (SH-SY5Y); assay: Cell proliferation / cell death assay, SH-SY5Y; type: cell-based; conditions: 10-100 μM
Experimental: as §1, §2

[4] = tested on: Ehrlich ascites cancer cells; assay: Animal survival analysis, ddY mice bearing Ehrlich ascites cancer cells; type: in vivo; conditions: daily intraperitoneal for 7 days
Experimental: Male ddy mice weighing 20-30 g obtained from and maintained on a standard diet and water ad libitum. Ehrlich ascites cancer cells (5×10^6 cells) were injected intraperitoneal to the mice. After 7 days later, the mice were subjected to daily intraperitoneal injection of IG1 or IG1 plus alkyl-acyl-phosphatidic acids (AAPAs) for additional 7 days. The endpoint of experiment was determined by spontaneous death of animals.

[5] = tested on: MKN45; assay: Cell proliferation / cell death assay, MKN45; type: cell-based, human; conditions: MKN45, 10-100 μM
Experimental: as §1
(§3) Cell proliferation assays were performed with the CellTiter 96 AQueous One Solution Cell Proliferation Assay kit according to the manufacturer's instructions (Promega, Madison, Wis., USA). Briefly, 5×10^3 cells/well in medium were placed onto 96-well plates. IGs were added to cellular cultures at final concentrations of 0, 1, 10, and 100 μM. Cultures were incubated for 3 days or 7 days and then added to 20 μL/well of CellTiter 96 AQueous One Solution Reagent, which contains a tetrazolium compound, 3-(4,5-dimethylthiazol-2-yl)-5-(3-carboxymethoxyphenyl)-2-(4-sulfophenyl)-2H-tetrazolium, an inner salt; MTS was added to the culture medium. After incubating the plate for 1 h in a CO2 incubator, absorbance at 490 nm was recorded with a 96-well plate reader.

[6] = tested on: native rat adipocytes; assay: Lipogenesis in native rat adipocytes; type: cell-based; conditions: rat isolated adipocytes
Experimental: Adipocytes were isolated from epididymal fat pads dissected from freshly sacrificed male Long-Evans rats and incorporation of [6-^3H]-glucose into triglycerides in response to treatment with inositol glycans or insulin was measured as previously described (Chakraborty, N. and M. d'Alarcao, Bioorganic & Medicinal Chemistry 13 (2005) 6732-6741).

[7] = tested on: human prostate cancer cells (PC3); assay: Cell proliferation / cell death assay, PC3; type: cell-based; conditions: PC3, 10-100 μM
Experimental: as §1, §2

[8] = tested on: Panc-1 cells; assay: Cell proliferation / cell death assay, Panc-1; type: cell-based, human
Experimental: as §1, §2

[9] = tested on: Aspc1; assay: Cell proliferation / cell death assay, Aspc1; type: cell-based, human; conditions: Aspc1, 10-100 μM
Experimental: as §1, §3

[10] = tested on: human mammary cancer cells (MCF-7); assay: Cell proliferation / cell death assay, MCF-7; type: cell-based; conditions: MCF-7, 10-100 μM
Experimental: as §1, §3

[11] = tested on: human umbilical vein endothelial cells (HUVEC); assay: Cell death of human umbilical vein endothelial cells; type: cell-based; conditions: in 1 hour
[12] = tested on: murine Ehrlich ascites cancer cells; assay: Cell proliferation / cell death assay, Ehrlich ascites cancer cells; type: cell-based; conditions: 10-100 μM
Experimental: as §1, §3

[13] = tested on: C57B/6 mice on high-fat diets; assay: IG1 treatment for 28 days, mice on high-fat diets; type: in vivo; conditions: data not shown
Experimental: Male C57BL/6 mice were housed individually and given free access to a standard diet (65% carbohydrate, 4% fat, and 24% protein) or a high-fat diet (Quick Fat; 60.2% carbohydrate, 15.3% fat, and 24.5% protein; Clea Japan, Tokyo, Japan), starting at 5 weeks of age, for 5 weeks. Db/db mice also were housed individually and given free access to a standard diet. C57BL/6 mice at 5 weeks of age, were received a single dose of 75 μg/g body weight streptozotoxin (STZ). 7 days after injections, the mice, whose fasting plasma glucose concentrations were over 400 mg/dl, were used as STZ-diabetic mice. Animal study protocols were in accordance with the institutional guidelines for animal experiments at Tohoku University.
Blood glucose was assayed with Glucose Ace (Sanwa Kagaku Kenkyusho, Nagoya, Japan). Serum insulin and leptin were determined with ELISA kits (Morinaga Institute of Biological Science, Yokohama, Japan). Serum adiponectin and tumor necrosis factor-α (TNF-α) concentrations were measured with an ELISA kit (Ohtsuka Pharmaceutical, Tokyo, Japan) and a TNF-α assay kit (Amersham Biosciences, Uppsala, Sweden), respectively. Serum total cholesterol, triglyceride, and FFA concentrations were determined with a Cholescolor liquid, Lipidos liquid (TOYOBO, Osaka, Japan), and NEFA C (Wako Pure Chemical, Osaka, Japan) kits, respectively.

SMILES: CCCCCCCCCCCCCCCC(=O)O[C@@H]1C(O)C(O)[C@H](O)C(O[C@H]2OC(CO)[C@@H](O)[C@H](O)C2N)C1O (stereo in doubt) [IG1, 2-Amino-2-deoxy-α-D-glucopyranosyl-(1→6)-2-palmitoyl-D-myo-inositol]
- ATP contents [1]: does not affect ATP contents
- rapid cancer cell death [2]: rapid cancer cell death was demonstrated
- rapid cancer cell death [3]: rapid cancer cell death was demonstrated
- survival times [4]: did not affect the survival times
- rapid cancer cell death [5]: rapid cancer cell death was demonstrated
- EC50 ([6]; Adipocyte, fit to receptor binding model, read-out: EC50 value for stimulation of lipogenesis): 14 µM
- Emax ([6]; Adipocyte, stimulation of lipogenesis, read-out: Amax (maximal effect)): 24%
- stimulation of lipogenesis ([6]; concentration series): stimulated lipogenesis
- rapid cancer cell death [7]: rapid cancer cell death was demonstrated
- cell death ([8]; Panc-1, 1 hour after addition, 10-100 μM): induced very rapid cell death; also recorded: induced rapid cell death
- cell death ([8]; Panc-1, after 24 hours): induced rapid cell death
- cell death ([8]; Panc-1, after 3 days (72 hours)): induced rapid cell death
- rapid cancer cell death [9]: rapid cancer cell death was demonstrated
- rapid cancer cell death [10]: rapid cancer cell death was demonstrated
- cell death of HUVEC [11]: induces rapid cell death
- rapid cancer cell death [12]: rapid cancer cell death was demonstrated
- daily food intakes, body weight, and fasting plasma concentrations of insulin, triglyceride, free fatty acids and leptin [13]: significantly reduces
